# Test results reported in patent US8680159B2, “Bradykinin 1 receptor modulating compounds” (Gruenenthal GmbH, priority 2010, dated 2014).
# Key:
# [1] = biological target: T1, human B1R receptor (CHO K1 cells stably transfected with the human B1R gene) (Homo sapiens, UniProt P46663); experiment: Functional study on the bradykinin receptor 1 (B1R), Ca2+ fluorescence (Fluo-4) FLIPR/Novostar assay, hB1R cells; format: cell-based; conditions: CHO-K1, read-out: % Inhibition (h-B1R) at 10 μM
# T1 construct: expressed in transfected cells; host or cells: CHO K1 cells (Chinese hamster ovary), stably transfected
# T1 sequence (P46663 1-353): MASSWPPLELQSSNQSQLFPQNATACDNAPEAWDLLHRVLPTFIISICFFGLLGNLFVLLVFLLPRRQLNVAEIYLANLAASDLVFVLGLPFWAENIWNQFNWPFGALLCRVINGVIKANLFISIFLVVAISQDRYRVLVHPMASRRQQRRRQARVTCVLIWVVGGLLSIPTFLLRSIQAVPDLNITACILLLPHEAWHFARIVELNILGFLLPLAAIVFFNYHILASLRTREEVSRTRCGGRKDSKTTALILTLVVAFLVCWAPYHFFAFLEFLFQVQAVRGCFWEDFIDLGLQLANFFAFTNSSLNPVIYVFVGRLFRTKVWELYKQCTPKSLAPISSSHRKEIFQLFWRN
# Outline: (§1)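 Test compounds (10 μM) were added first and the Ca2+ rise was scored as % activation against Lys-Des-Arg9-bradykinin (≥50 nM, human) or Des-Arg9-bradykinin (≥1 μM, rat). After 6-20 min, the matching agonist was given at its EC80, and % inhibition relative to maximal achievable inhibition was calculated.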
# [2] = biological target: T2, B1R receptor of the rat (CHO K1 cells stably transfected with the B1R gene of the rat) (Rattus norvegicus, UniProt P97583); experiment: Functional study on the bradykinin receptor 1 (B1R), Ca2+ fluorescence (Fluo-4) FLIPR/Novostar assay, rB1R cells; format: cell-based; conditions: for inhibition at 10 µM: CHO-K1, 10 μM, read-out: % Inhibition (r-B1R) at 10 μM
# T2 construct: expressed in transfected cells; host or cells: CHO K1 cells (Chinese hamster ovary), stably transfected
# T2 sequence (P97583 1-337): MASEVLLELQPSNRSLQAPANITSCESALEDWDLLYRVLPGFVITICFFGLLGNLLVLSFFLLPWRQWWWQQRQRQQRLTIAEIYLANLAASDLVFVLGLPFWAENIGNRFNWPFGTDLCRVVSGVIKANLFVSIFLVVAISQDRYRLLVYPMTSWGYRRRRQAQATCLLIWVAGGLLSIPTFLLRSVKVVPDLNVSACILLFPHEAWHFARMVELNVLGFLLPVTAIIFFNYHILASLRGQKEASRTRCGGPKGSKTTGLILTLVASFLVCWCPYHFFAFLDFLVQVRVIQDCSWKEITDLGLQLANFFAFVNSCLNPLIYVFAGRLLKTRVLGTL
# Outline: as §1
inhibition at 10 µM [1] [%],% Inhibition (r-B1R) at 10 μM [2] [%],inhibition at 10 µM [2] [%],Compound
98,104,–,"CN(C(=O)c1ccc2c(c1)C(NC(=O)c1c(Cl)cccc1C(F)(F)F)CC2(C)C)C1CCN(c2ccncc2)CC1 (stereo not shown) [CC_H-17, 3-[[2-Chloro-6-(trifluoromethyl)-benzoyl]amino]-N,1,1-trimethyl-N-(1-pyridin-4-yl-piperidin-4-yl)-2,3-dihydro-indene-5-carboxylic acid amide]"
99,–,102,"CN(C(=O)c1ccc2c(c1)C(NC(=O)CCC1CCCC1)CC2(C)C)C1CCN(c2ccncc2)CC1 (stereo not shown) [CC_H-18, 3-(3-Cyclopentyl-propanoylamino)-N,1,1-trimethyl-N-(1-pyridin-4-yl-piperidin-4-yl)-2,3-dihydro-indene-5-carboxylic acid amide]"
100,–,100,"CN(C(=O)c1ccc2c(c1)C(NC(=O)c1cccc(Cl)c1Cl)CC2(C)C)C1CCN(c2ccncc2)CC1 (stereo not shown) [CC_H-19, 3-[(2,3-Dichloro-benzoyl)amino]-N,1,1-trimethyl-N-(1-pyridin-4-yl-piperidin-4-yl)-2,3-dihydro-indene-5-carboxylic acid amide]"
99,–,104,"CN(C(=O)c1ccc2c(c1)C(NC(=O)c1sccc1Cl)CC2(C)C)C1CCN(c2ccncc2)CC1 (stereo not shown) [CC_H-20, 3-Chloro-N-[3,3-dimethyl-6-[methyl-(1-pyridin-4-yl-piperidin-4-yl)-carbamoyl]-1,2-dihydro-inden-1-yl]-thiophene-2-carboxylic acid amide]"
99,104,–,"CN(C(=O)c1ccc2c(c1)C(NC(=O)c1cc(F)ccc1Cl)CC2(C)C)C1CCN(c2ccncc2)CC1 (stereo not shown) [CC_H-21, 3-[(2-Chloro-5-fluoro-benzoyl)amino]-N,1,1-trimethyl-N-(1-pyridin-4-yl-piperidin-4-yl)-2,3-dihydro-indene-5-carboxylic acid amide]"
97,–,90,"CN(C(=O)c1ccc2c(c1)C(NC(=O)c1cncnc1)CC2(C)C)C1CCN(c2ccncc2)CC1 (stereo not shown) [CC_H-22, N-[3,3-Dimethyl-6-[methyl-(1-pyridin-4-yl-piperidin-4-yl)-carbamoyl]-1,2-dihydro-inden-1-yl]-pyrimidine-5-carboxylic acid amide]"
99,–,104,"CN(C(=O)c1ccc2c(c1)C(NC(=O)c1ccccc1Cl)CC2(C)C)C1CCN(c2ccncc2)CC1 (stereo not shown) [CC_H-23, 3-[(2-Chloro-benzoyl)amino]-N,1,1-trimethyl-N-(1-pyridin-4-yl-piperidin-4-yl)-2,3-dihydro-indene-5-carboxylic acid amide]"
100,–,105,"CN(C(=O)c1ccc2c(c1)C(NC(=O)c1ccccc1Cl)CC2)C1CCN(c2ccncc2)CC1 (stereo not shown) [CC_H-24, 3-[(2-Chloro-benzoyl)amino]-N-methyl-N-(1-pyridin-4-yl-piperidin-4-yl)-2,3-dihydro-1H-indene-5-carboxylic acid amide]"
98,–,104,"CN(C(=O)c1ccc2c(c1)C(N(C)C(=O)c1cccc(Cl)c1Cl)CC2)C1CCN(c2ccncc2)CC1 (stereo not shown) [CC_H-25, 3-[(2,3-Dichloro-benzoyl)-methyl-amino]-N-methyl-N-(1-pyridin-4-yl-piperidin-4-yl)-2,3-dihydro-1H-indene-5-carboxylic acid amide]"
100,103,–,"CN(C(=O)c1ccc2c(c1)C(NC(=O)c1cc(F)ccc1Cl)CC2)C1CCN(c2ccncc2)CC1 (stereo not shown) [CC_H-26, 3-[(2-Chloro-5-fluoro-benzoyl)amino]-N-methyl-N-(1-pyridin-4-yl-piperidin-4-yl)-2,3-dihydro-1H-indene-5-carboxylic acid amide]"
100,104,–,"CN(C(=O)c1ccc2c(c1)C(N(C)C(=O)c1cc(F)ccc1Cl)CC2)C1CCN(c2ccncc2)CC1 (stereo not shown) [CC_H-27, 3-[(2-Chloro-5-fluoro-benzoyl)-methyl-amino]-N-methyl-N-(1-pyridin-4-yl-piperidin-4-yl)-2,3-dihydro-1H-indene-5-carboxylic acid amide]"
99,–,103,"CC(C)CC(=O)N(C)C1CCc2ccc(C(=O)N(C)C3CCN(c4ccncc4)CC3)cc21 (stereo not shown) [CC_H-28, N-Methyl-3-[methyl-(3-methyl-butanoyl)-amino]-N-(1-pyridin-4-yl-piperidin-4-yl)-2,3-dihydro-1H-indene-5-carboxylic acid amide]"
99,–,103,"CN(C(=O)c1ccc2c(c1)C(NC(=O)c1sccc1Cl)CC2)C1CCN(c2ccncc2)CC1 (stereo not shown) [CC_H-29, 3-Chloro-N-[6-[methyl-(1-pyridin-4-yl-piperidin-4-yl)-carbamoyl]-2,3-dihydro-1H-inden-1-yl]-thiophene-2-carboxylic acid amide]"
99,–,104,"CN(C(=O)c1ccc2c(c1)C(N(C)C(=O)c1sccc1Cl)CC2)C1CCN(c2ccncc2)CC1 (stereo not shown) [CC_H-30, 3-Chloro-N-methyl-N-[6-[methyl-(1-pyridin-4-yl-piperidin-4-yl)-carbamoyl]-2,3-dihydro-1H-inden-1-yl]-thiophene-2-carboxylic acid amide]"
97,–,105,"CN(C(=O)c1ccc2c(c1)C(N(C)C(=O)c1cnccc1C(F)(F)F)CC2)C1CCN(c2ccncc2)CC1 (stereo not shown) [CC_H-32, N-Methyl-N-[6-[methyl-(1-pyridin-4-yl-piperidin-4-yl)-carbamoyl]-2,3-dihydro-1H-inden-1-yl]-4-(trifluoromethyl)-pyridine-3-carboxylic acid amide]"
98,–,104,"CN(C(=O)c1ccc2c(c1)C(NC(=O)c1ccccc1Cl)CCO2)C1CCN(c2ccncc2)CC1 (stereo not shown) [CC_H-33, 4-[(2-Chloro-benzoyl)amino]-N-methyl-N-(1-pyridin-4-yl-piperidin-4-yl)-3,4-dihydro-2H-chromene-6-carboxylic acid amide]"
99,–,104,"O=C(NCCC1CCN(c2ccncc2)CC1)c1ccc2c(c1)C(NC(=O)c1ccccc1Cl)CC2 (stereo not shown) [CC_H-34, 3-[(2-Chloro-benzoyl)amino]-N-[2-(1-pyridin-4-yl-piperidin-4-yl)-ethyl]-2,3-dihydro-1H-indene-5-carboxylic acid amide]"
97,–,104,"CN(C(=O)c1ccc2c(c1)C(NC(=O)c1cccc(Cl)c1Cl)CCO2)C1CCN(c2ccncc2)CC1 (stereo not shown) [CC_H-35, 4-[(2,3-Dichloro-benzoyl)amino]-N-methyl-N-[1-pyridin-4-yl-piperidin-4-yl]-3,4-dihydro-2H-chromene-6-carboxylic acid amide]"
99,–,104,"O=C(NCCC1CCN(c2ccncc2)CC1)c1ccc2c(c1)C(NC(=O)c1cc(F)ccc1Cl)CC2 (stereo not shown) [CC_H-36, 3-[(2-Chloro-5-fluoro-benzoyl)amino]-N-[2-(1-pyridin-4-yl-piperidin-4-yl)-ethyl]-2,3-dihydro-1H-indene-5-carboxylic acid amide]"
93,–,104,"O=C(NCCC1CCN(c2ccncc2)CC1)c1ccc2c(c1)C(NC(=O)c1cnccc1C(F)(F)F)CC2 (stereo not shown) [CC_H-37, N-[6-[2-(1-Pyridin-4-yl-piperidin-4-yl)-ethyl-carbamoyl]-2,3-dihydro-1H-inden-1-yl]-4-(trifluoromethyl)-pyridine-3-carboxylic acid amide]"
99,–,104,"CN(C(=O)c1ccc2c(c1)C(NC(=O)C1CCCCC1)CCO2)C1CCN(c2ccncc2)CC1 (stereo not shown) [CC_H-38, 4-(Cyclohexanecarbonylamino)-N-methyl-N-(1-pyridin-4-yl-piperidin-4-yl)-3,4-dihydro-2H-chromene-6-carboxylic acid amide]"
99,104,–,"CC(C)CC(=O)NC1CCOc2ccc(C(=O)N(C)C3CCN(c4ccncc4)CC3)cc21 (stereo not shown) [CC_H-39, N-Methyl-4-(3-methyl-butanoylamino)-N-(1-pyridin-4-yl-piperidin-4-yl)-3,4-dihydro-2H-chromene-6-carboxylic acid amide]"
95,–,100,"CN(C(=O)c1ccc2c(c1)C(NC(=O)c1sccc1Cl)CCO2)C1CCN(c2ccncc2)CC1 (stereo not shown) [CC_H-40, 4-[(3-Chloro-thiophene-2-carbonyl)amino]-N-methyl-N-(1-pyridin-4-yl-piperidin-4-yl)-3,4-dihydro-2H-chromene-6-carboxylic acid amide]"
